Test results published in ChEMBL document CHEMBL1201862, “PubChem BioAssay data set” (2004).
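Following 48 hours of exposure in 96-well plates, responses at five concentrations were used to interpolate endpoints linearly. GI50 is the concentration that inhibits growth by half.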 Activity calls are given as the source filed them. Cut-off read from the data, not from the text of the source: active = GI50 up to about 1.1 µM and inactive = higher.

What was measured:
Experiment in all cases: NCI anticancer screen, dose series, 48 h
BT-549 = test system: BT-549
HCT-116 = test system: HCT-116
HOP-62 = test system: HOP-62
HOP-92 = test system: HOP-92
IGROV-1 = test system: IGROV-1
K562 = test system: K562
M14 = test system: M14
MDA-N = test system: MDA-N
NCI-H226 = test system: NCI-H226
NCI-H522 = test system: NCI-H522
OVCAR-4 = test system: OVCAR-4
OVCAR-8 = test system: OVCAR-8
PC-3 = test system: PC-3
SF-268 = test system: SF-268
SF-295 = test system: SF-295
SK-MEL-2 = test system: SK-MEL-2
SK-OV-3 = test system: SK-OV-3
U-251 = test system: U-251
UO-31 = test system: UO-31
KM12 = test system: KM12

Measured: GI50

O=c1[nH]c(Nc2nc3ccccc3[nH]2)nc2c1CCC2
inactive: BT-549 35.5 µM | HCT-116 > 100 µM | HOP-62 49.9 µM | HOP-92 30.8 µM | IGROV-1 > 100 µM | K562 > 100 µM | M14 > 100 µM | MDA-N > 100 µM | NCI-H226 63.1 µM | NCI-H522 > 100 µM | OVCAR-4 90.2 µM | OVCAR-8 42.6 µM | PC-3 > 100 µM | SF-268 43.6 µM | SF-295 76.9 µM | SK-MEL-2 > 100 µM | SK-OV-3 41.8 µM | U-251 64 µM | UO-31 > 100 µM

Fc1ccc(C(OCCN2CCC3CCC(C2)N3C/C=C/c2ccco2)c2ccc(F)cc2)cc1 (centres undefined)
inactive: BT-549 12.8 µM | HCT-116 4.91 µM | HOP-62 16.2 µM | HOP-92 4.62 µM | IGROV-1 6.5 µM | K562 3.21 µM | KM12 9.1 µM | M14 5.5 µM | MDA-N 12.4 µM | NCI-H226 13.2 µM | NCI-H522 7.23 µM | OVCAR-4 10.2 µM | OVCAR-8 5.83 µM | PC-3 8.2 µM | SF-268 12.5 µM | SF-295 13 µM | SK-MEL-2 12.3 µM | SK-OV-3 14.6 µM | U-251 8.59 µM | UO-31 15.1 µM

Cc1ccc(S(=O)(=O)Oc2coc(CO)cc2=O)cc1
inactive: BT-549 13.8 µM | HCT-116 4.25 µM | HOP-62 14.7 µM | HOP-92 16 µM | IGROV-1 9.29 µM | K562 6.04 µM | KM12 4.86 µM | M14 13.1 µM | MDA-N 8.02 µM | NCI-H226 33.1 µM | NCI-H522 1.76 µM | OVCAR-4 15.1 µM | OVCAR-8 17.6 µM | PC-3 15.1 µM | SF-268 9.42 µM | SF-295 16 µM | SK-MEL-2 20.3 µM | SK-OV-3 17.1 µM | U-251 9.84 µM | UO-31 14.1 µM

CC1CCC2(O)C3(C)CC4(O)OC2(C1O)C1(O)C3(O)C(OC(=O)c2ccc[nH]2)C(O)(C(C)C)C41C (centres undefined)
inactive: BT-549 > 100 µM | HCT-116 > 100 µM | HOP-62 > 100 µM | HOP-92 > 100 µM | IGROV-1 > 100 µM | K562 > 20.9 µM | KM12 > 100 µM | M14 > 100 µM | MDA-N > 100 µM | NCI-H226 > 100 µM | NCI-H522 > 100 µM | OVCAR-4 > 100 µM | OVCAR-8 > 100 µM | PC-3 > 100 µM | SF-268 > 31.6 µM | SF-295 > 100 µM | SK-MEL-2 > 100 µM | SK-OV-3 > 100 µM | U-251 > 100 µM | UO-31 > 100 µM
